Source: patent publication US10967038B2, “Use of cell-permeable peptide inhibitors of the JNK signal transduction pathway for the treatment of chronic or non-chronic inflammatory eye diseases” (priority 2010, dated 2021)

Tests used:
Assay type in all cases: in vivo, rat
[1] = test system: phospho-p44/42 MAPK (Erk1/2); experiment: Immunohistochemistry of phospho-p44/42 MAPK (Erk1/2) in EIU eyes; details: 24 h
Protocol: (§1) A second set of experiment was designed to evaluate the anti-inflammatory effect of the JNK-inhibitor (poly-)peptide of SEQ ID NO: 11 at the cellular and tissue level as well as the biodistribution of this molecule 24 hours after administration. Rats were randomized into 11 experimental groups. 6 groups of rats with uveitis: untreated uveitic rats, rats injected intravenously with NaCl or the JNK-inhibitor (poly-)peptide of SEQ ID NO: 11 and rats injected intravitreously with the vehicle, the JNK-inhibitor (poly-)peptide of SEQ ID NO: 11 or dexamethasone. The 5 additional groups without uveitis were: untreated healthy rats, rats treated by NaCl IV or the JNK-inhibitor (poly-)peptide of SEQ ID NO: 11 IV and rats injected IVT with NaCl or the JNK-inhibitor (poly-)peptide of SEQ ID NO: 11. Three eyes from separate rats were collected per group and used for immunohistochemistry.
To analyze the ERK and p38 MAPK pathways, blots were sequentially incubated with a rabbit phospho-p44/42 MAPK (Erk1/2) (Thr202/Tyr204) (4370) primary antibody (or rabbit phospho-p38 MAPK (Thr180/Tyr182) (9215) antibody) and a horseradish peroxidase-conjugated goat anti-rabbit IgG (H+L) (PI-1000—Vector Laboratories, Clinisciences, Montrouge, France) secondary antibody at dilution 1:5000. […]

[2] = Ocular biodistribution by immunohistochemistry against SEQ ID NO: 11
Protocol: For immunohistochemistry, eyeballs were collected and fixed for 1 h at room temperature in phosphate buffered saline (PBS) containing 4% paraformaldehyde before being rinsed overnight in PBS. The next day, samples were embedded and frozen in optimal cutting-temperature (OCT) compound (Tissue-Tek®, Sakura Finetek, Zoeterwoude, Netherland) and stored at −80° C. Frozen antero-posterior sections of eyes (10 μm thick) were performed at the optic nerve level using a cryostat (Leica CM 3050S, Rueil-Malmaison, France) and mounted on super-frost slides for immunohistochemical analysis.
as §1
Immunostaining of the JNK-inhibitor (poly-)peptide of SEQ ID NO: 11 was performed on healthy and uveitic eyes to study its ocular biodistribution after systemic or local administration. Briefly, sections were permeabilized as described above before being sequentially incubated with an anti-SEQ ID NO: 11 purified rabbit IgG and a secondary Alexa 594 (red)-conjugated goat anti-rabbit IgG (Invitrogen, Cergy Pontoise, France) diluted 1:100 and 1:250 in PBS respectively. Immunostaining of untreated healthy and uveitic eyes were used as negative controls. Nuclei were stained with DAPI before mounting and observation.

[3] = test system: inducible nitric oxide synthase (iNOS); experiment: iNOS expression in ocular tissues (immunohistochemistry, semi-quantitative RT-PCR); details: IV or IVT, 24 h, vs control eyes
Protocol: Retinas and RPE/choroid/sclera complexes were also collected at 24 hours to analyze iNOS mRNA levels by RT-PCR and c-Jun phosphorylation state by Western-Blot. Tissues were collected only from eyes treated by IV (intravenous) injection of vehicle, IV injection of the JNK-inhibitor (poly-)peptide of SEQ ID NO: 11, IVT (intravitreal) injection of vehicle and IVT injection of the JNK-inhibitor (poly-)peptide of SEQ ID NO: 11 (n=2 eyes per condition collected from separate rats). Eyes were selected so that their EIU clinical score was representative of the mean of the experimental group they belong to, i.e 3 for eyes treated by IV and IVT injection of vehicle and 2 for eyes treated by IV or IVT injection of the JNK-inhibitor (poly-)peptide of SEQ ID NO: 11.
To characterize the cellular infiltrate, sections were double-stained with ED1 and iNOS. […] After staining nuclei with DAPI (Sigma-Aldrich, Saint-Quentin Fallavier, France), sections were mounted in PBS/Glycerol (1/1) and observed by fluorescence photomicroscopy (FXA, Microphot, Nikon, Melville, USA). […] ED1 positive cells and polymorphonuclear cells, identified by the shape of their nuclei stained with DAPI, were quantified on histological sections. […] Results were expressed as mean±standard error of the mean (SEM). […]

chemokines/cytokines = experiment: Chemokine/Cytokine Multiplex Assay on ocular fluids and sera
Protocol: Aqueous humor and vitreous were collected and pooled from each enucleated eye. Ocular fluids were immediately centrifuged and the cell-free fractions were collected and frozen at −20° C. before analysis by Multiplex assay. Blood samples were first clotted at room temperature for 2 hours and then at 4° C. overnight. Serum was collected, centrifuged and the clear supernatant was collected and frozen at −20° C. before Multiplex analysis.
In a first set of experiment, 70 rats were randomized into 14 experimental groups with 5 rats per group. Uveitis was induced in each group and rats were killed 6 hours (4 groups), 24 hours (6 groups) and 48 hours (4 groups) after LPS challenge. For each time point tested (i.e. 6 h, 24 h and 48 h), rats treated by intravenous or intravitreous injections of vehicle (NaCl 0.9%) or the JNK-inhibitor (poly-)peptide of SEQ ID NO: 11 were compared to untreated control uveitic rats. Two additional groups, treated by intravenous injection of vehicle and intravitreal injection of dexamethasone were used at 24 hours. Clinical ocular inflammation was recorded only at 24 hours (see Scoring of Endotoxin-Induced Uveitis (EIU) section). At each time point, intraocular fluids from each eye (n=10 per group) and serum from each animal (n=5 per group) were used for Chemokine/Cytokine Multiplex Assay.
Intraocular fluids (diluted to obtain a final volume of 25 μL) and sera (25 μL of 1:5 dilution) were subjected to multiplex bead analysis. This method uses microspheres as the solid support for immunoassays12 and allows the titration of a greater number of cytokines with increased sensitivity than occurs with ELISA.13 For each sample, seventeen analytes were quantified simultaneously using the rat Cytokine/Chemokine-17plex kit (Milliplex Map Kit, Millipore, Saint-Quentin-en-Yvelines, France) according to the manufacturer's instructions: Chemokines MCP-1/CCL2, MIP-1α/CCL3, RANTES/CCL5, IP-10/CXCL10 (IFN-inducible protein-10) and GRO/KC; proinflammatory mediators IL-1[…], IL-18 and TNF-[…]; Th1/Th2/Th17 cytokines IL-2 and IFN-[…]/IL-4, IL-5, IL-6, IL-10 and IL-13/IL-17. The assay was performed in a 96-well filter plate and standard curves for each cytokine were generated with a Rat Cytokine Standard provided in the kit. All incubation steps were performed under medium orbital agitation and in the dark to protect the beads from light. Data acquisition and analysis were performed with the manager software version 4.1 (Bioplex; Bio-Rad) with four or five logistic parameters for standard curves. Detection thresholds for all the analytes were estimated around 1 to 10 pg/mL.

[4] = ocular fluids, IV injection, at 6 and 24 hours
[5] = ocular fluids, IV injection, at different time points
[6] = ocular fluids, IVT injection, at 6 hours, vs vehicle IVT
[7] = ocular fluids, IVT injection, at 24 hours, vs vehicle IVT
[8] = ocular fluids, treated versus untreated eyes, any tested time point

SMILES: CC(C)C[C@@H](NC(=O)[C@@H](Cc1ccccc1)NC(=O)[C@H]1CCCN1C(=O)[C@@H](CCC(N)=O)NC(=O)[C@H](NC(=O)[C@H]1CCCN1C(=O)[C@@H](CCCNC(=N)N)NC(=O)[C@@H](CO)NC(=O)[C@@H](CCC(N)=O)NC(=O)[C@H](N)CC(=O)O)C(C)C)C(=O)N[C@H](CC(N)=O)C(=O)N[C@H](CC(C)C)C(=O)N[C@@H](C(=O)N[C@@H](C(=O)N1CCC[C@@H]1C(=O)N[C@H](CCCNC(=N)N)C(=O)N[C@H](CCCCN)C(=O)N1CCC[C@@H]1C(=O)N[C@H](CCCNC(=N)N)C(=O)N1CCC[C@@H]1C(=O)N1CCC[C@@H]1C(=O)N[C@H](CCCNC(=N)N)C(=O)N[C@H](CCCNC(=N)N)C(=O)N[C@H](CCCNC(=N)N)C(=O)N[C@H](CCC(N)=O)C(=O)N[C@H](CCCNC(=N)N)C(=O)N[C@H](CCCNC(=N)N)C(=O)N[C@H](CCCCN)C(=O)N[C@H](CCCCN)C(=O)N[C@H](CCCNC(=N)N)C(=O)NCC(=O)O)[C@H](C)O)[C@H](C)O [SEQ ID NO: 11]
- effect on p-Erk1/2 signal in iris epithelium ([1]; iris): no effect
- effect on p-Erk1/2 signal in retinal Müller glial (RMG) cells ([1]; neuroretina, IV or IVT): no effect
- distribution in ocular tissues (immunoreactivity) ([2]; EIU eyes, 24 h after IV injection, occasional infiltrating inflammatory cells immunopositive): not detected in ocular tissues
- distribution in ocular tissues (immunoreactivity) ([2]; healthy eyes, 24 h after IV injection, 20 μg/kg): no signal was observed
- inflammatory cell infiltration in healthy eyes ([2]; healthy eyes, 24 h after IV or IVT): No inflammatory cell infiltration was observed
- distribution in ocular tissues (immunoreactivity) ([2]; healthy eyes, 24 h after IVT injection, 0.2 μg/injection): distributed in almost all ocular tissues
- distribution in ocular tissues (immunoreactivity) ([2]; uveitic eyes, 24 h after IVT injection, also in mobilized resident cells (microglial)): mostly found in ocular tissues like in healthy eyes
- number of iNOS positive cells [3]: reduced
- MCP-1 level (chemokines/cytokines; [4]): significant reduction
- MIP-1α level (chemokines/cytokines; [4]): significant reduction
- RANTES level (chemokines/cytokines; [4]): significant reduction
- GRO/KC level (chemokines/cytokines; ocular fluids, IV injection, at 6 hours): significantly reduced
- IL-10 level (chemokines/cytokines; ocular fluids, IV injection, at 6 hours, not significantly): tended to increase
- IL-6 level (chemokines/cytokines; [5]): significantly reduced
- INF-γ level (chemokines/cytokines; [5]): significantly reduced
- TNF-α level (chemokines/cytokines; [5]): significantly reduced
- IL-2 level (chemokines/cytokines; [6]): a trend to a decrease
- IL-6 level (chemokines/cytokines; [6]): a trend to a decrease
- MCP-1 level (chemokines/cytokines; [6]): a trend to a decrease
- TNF-α level (chemokines/cytokines; [6]): a trend to a decrease
- IL-2 level (chemokines/cytokines; [7]): marked decrease
- IL-13 level (chemokines/cytokines; [7]): increase
- IL-1β level (chemokines/cytokines; [8]): did not differ
- IL-4 level (chemokines/cytokines; [8]): did not differ
- IL-18 level (chemokines/cytokines; [8]): did not differ
- IL-2 level (tended to be reduced) (chemokines/cytokines; serum, IV administration): not statistically significant
- MIP-1α level (tended to be reduced) (chemokines/cytokines; serum, IV administration): not statistically significant
- IL-2 level (tended to be reduced) (chemokines/cytokines; serum, IVT administration): not statistically significant
